According to paper PMC10458458, “Characterization of Anticancer Effects of the Analogs of DJ4, a Novel Selective Inhibitor of ROCK and MRCK Kinases” (Pharmaceuticals, 2023):

Assays:
Assay in all cases: NCI-60 screen (SRB)
Format in all cases: cell-based, human
HOP-62 = HOP-62 (Non-Small Cell Lung Cancer), 10 µM, 48 h; negative = cell death vs time zero
Text: (§1) The selected active compounds were screened at NCI, as a part of In Vitro Cell Line Screening Project (IVCLSP), for their effect on cell growth in 60 different cancer cell lines. The 60 human cancer cell line panel included leukemia, melanoma, non-small cell lung cancer, colon, central nervous system (CNS), ovarian, renal, prostate, and breast cancer cell lines. The detailed procedure and applications of NCI-60 cell line screening can be found at https://dtp.cancer.gov/discovery_development/nci-60/default.htm (accessed on 9 January 2023). Briefly, cells were plated in 96-well plates and incubated for 24 h. One set of cells was fixed with trichloroacetic acid at time 0 h (Tz), and SRB (sulphorhodamine B) assays were performed to quantify the cells. The remaining set of cells were treated with 10 µM single concentration of each compound and incubated for 48 h (Te) after which the cells were fixed, and the SRB assays were performed. Data are presented as percent growth relative to the control as 100% according to the following calculations:
(§2) When Te >/= Tz. Growth(%)=Te−Tz/C−Tz∗100 and when Te < Tz. (1) Growth(%)=Te−Tz/Tz∗100
(§3) Values between 0–100 indicate cell growth, zero (0) indicates no cell growth, values < 0 indicate cell death.

OVCAR-3 = OVCAR-3 (Ovarian Cancer), 10 µM, 48 h; negative = cell death vs time zero
Text: as §1, §2, §3

SK-MEL-2 = SK-MEL-2 (Melanoma), 10 µM, 48 h; negative = cell death vs time zero
Text: as §1, §2, §3

SK-OV-3 = SK-OV-3 (Ovarian Cancer), 10 µM, 48 h; negative = cell death vs time zero
Text: as §1, §2, §3

OVCAR-5 = OVCAR-5 (Ovarian Cancer), 10 µM, 48 h; negative = cell death vs time zero
Text: as §1, §2, §3

SK-MEL-28 = SK-MEL-28 (Melanoma), 10 µM, 48 h; negative = cell death vs time zero
Text: as §1, §2, §3

NCI-H23 = NCI-H23 (Non-Small Cell Lung Cancer), 10 µM, 48 h; negative = cell death vs time zero
Text: as §1, §2, §3

HL-60(TB) = HL-60(TB) (Leukemia), 10 µM, 48 h; negative = cell death vs time zero
Text: as §1, §2, §3

HOP-92 = HOP-92 (Non-Small Cell Lung Cancer), 10 µM, 48 h; negative = cell death vs time zero
Text: as §1, §2, §3

SF-268 = SF-268 (CNS Cancer), 10 µM, 48 h; negative = cell death vs time zero
Text: as §1, §2, §3

786-0 = 786-0 (Renal Cancer), 10 µM, 48 h; negative = cell death vs time zero
Text: as §1, §2, §3

SR = SR (Leukemia), 10 µM, 48 h; negative = cell death vs time zero
Text: as §1, §2, §3

HCT-116 = HCT-116 (Colon Cancer), 10 µM, 48 h; negative = cell death vs time zero
Text: as §1, §2, §3

SW-620 = SW-620 (Colon Cancer), 10 µM, 48 h; negative = cell death vs time zero
Text: as §1, §2, §3

NCI-H322M = NCI-H322M (Non-Small Cell Lung Cancer), 10 µM, 48 h; negative = cell death vs time zero
Text: as §1, §2, §3

COLO 205 = COLO 205 (Colon Cancer), 10 µM, 48 h; negative = cell death vs time zero
Text: as §1, §2, §3

MDA-MB-231 = MDA-MB-231 (Breast Cancer), 10 µM, 48 h; negative = cell death vs time zero
Text: as §1, §2, §3

SNB-75 = details: 10 µM, 48 h; for percent cell growth: SNB-75 (CNS Cancer), negative = cell death vs time zero
Text: as §1, §2, §3

NCI-H226 = NCI-H226 (Non-Small Cell Lung Cancer), 10 µM, 48 h; negative = cell death vs time zero
Text: as §1, §2, §3

MALME-3M = details: 10 µM, 48 h; for percent cell growth: MALME-3M (Melanoma), negative = cell death vs time zero
Text: as §1, §2, §3

K-562 = details: 10 µM, 48 h; for percent cell growth: K-562 (Leukemia), negative = cell death vs time zero; for increase in cell number: K-562 (leukemia)
Text: as §1, §2, §3

T-47D = T-47D (Breast Cancer), 10 µM, 48 h; negative = cell death vs time zero
Text: as §1, §2, §3

IGROV1 = IGROV1 (Ovarian Cancer), 10 µM, 48 h; negative = cell death vs time zero
Text: as §1, §2, §3

HCC-2998 = details: for percent cell growth: HCC-2998 (Colon Cancer), negative = cell death vs time zero
Text: as §1, §2, §3

UACC-62 = UACC-62 (Melanoma), 10 µM, 48 h; negative = cell death vs time zero
Text: as §1, §2, §3

M14 = M14 (Melanoma), 10 µM, 48 h; negative = cell death vs time zero
Text: as §1, §2, §3

RPMI-8226 = details: 10 µM, 48 h; for percent cell growth: RPMI-8226 (Leukemia), negative = cell death vs time zero; for increase in cell number: RPMI-8226 (leukemia)
Text: as §1, §2, §3

Compound	percent cell growth (HOP-62) [%]	percent cell growth (OVCAR-3) [%]	percent cell growth (SK-MEL-2) [%]	percent cell growth (SK-OV-3) [%]	percent cell growth (OVCAR-5) [%]	percent cell growth (SK-MEL-28) [%]	percent cell growth (NCI-H23) [%]	percent cell growth (HL-60(TB)) [%]	percent cell growth (HOP-92) [%]	percent cell growth (SF-268) [%]	percent cell growth (786-0) [%]	percent cell growth (SR) [%]	percent cell growth (HCT-116) [%]	percent cell growth (SW-620) [%]	percent cell growth (NCI-H322M) [%]	percent cell growth (COLO 205) [%]	percent cell growth (MDA-MB-231) [%]	percent cell growth (SNB-75) [%]	percent cell growth (NCI-H226) [%]	percent cell growth (MALME-3M) [%]	other results
C=CC/N=C1\NC(=O)/C(=C\c2c[nH]c3ncccc23)S1 [DJ-Allyl]	−10.8	−7.0	−8.4	−7.0	5.3	−2.4	6.8	−14.5	−1.9	−3.3	4.4	−9.5	6.3	7.4	10.2	−20.1	19.8	−67.3	10.7	40.2	reduction in cell number (SNB-75; SNB-75 (CNS)): 60%; increase in cell number (MALME-3M; MALME-3M (melanoma)): ~ 40%; percent cell growth (K-562): 42.1%; increase in cell number (K-562): ~ 40%; percent cell growth (T-47D): −8.7%; percent cell growth (IGROV1): 17.0%; percent cell growth (HCC-2998; 10 µM, 48 h): 44.6%; increase in cell number (HCC-2998; HCC-2998 (colon), 10 µM, 48 h): ~ 40%; percent cell growth (UACC-62): 9.8%; percent cell growth (M14): 24.5%; percent cell growth (RPMI-8226): 42.7%; increase in cell number (RPMI-8226): ~ 40%
Cl.O=C1NC(=NCCc2ccccc2)SC1=Cc1c[nH]c2ncccc12 (mixture of isomers) [DJ4-HCl]	−3.0	3.4	−4.6	2.1	18.1	0.8	3.0	−6.6	11.8	8.9	19.7	−1.5	5.8	7.8	19.6	−6.8	25.9	−13.3	22.4	44.8	percent cell growth (K-562): 28.5%; percent cell growth (T-47D): −1.3%; percent cell growth (IGROV1): 25.6%; percent cell growth (HCC-2998; 10 µM, 48 h): 66.2%; percent cell growth (UACC-62): −1.3%; percent cell growth (M14): 31.7%; percent cell growth (RPMI-8226): 38.7%
O=C1N/C(=N\CCc2ccccc2)S/C1=C/c1c[nH]c2ncccc12 [DJ4]	19.9	5.6	28.8	27.0	37.8	16.0	9.1	6.8	−9.7	10.4	9.0	5.6	9.7	9.9	5.2	4.8	25.5	−10.9	3.3	30.6	percent cell growth (K-562): 29.9%; percent cell growth (T-47D): 2.6%; percent cell growth (IGROV1): 14.0%; percent cell growth (HCC-2998; 10 µM, 48 h): 53.9%; IC50 (HCC-2998; Homo sapiens, HCC-2998 colon cancer cells, NCI-60 screen): > 10 µM; percent cell growth (UACC-62): −1.4%; percent cell growth (M14): 29.9%; percent cell growth (RPMI-8226): 39.2%
CC/N=C1\NC(=O)/C(=C\c2c[nH]c3ncccc23)S1 [DJE4]	−26.5	−2.1	−48.7	−10.3	8.7	−17.2	−7.9	−22.4	4.4	−5.8	3.0	0.4	4.0	6.5	5.8	−33.3	10.7	−71.8	10.8	−6.2	percent cell growth (K-562): 26.3%; increase in cell number (K-562): 26%; percent cell growth (T-47D): −9.7%; percent cell growth (IGROV1): 21.7%; percent cell growth (HCC-2998; 10 µM, 48 h): 10.2%; percent cell growth (UACC-62): −16.0%; percent cell growth (M14): 0.7%; percent cell growth (RPMI-8226): 29.1%; increase in cell number (RPMI-8226): 29%
